The record followed here is patent US20240101570A1 (AMGEN INC., priority 2020, published 2024).

One test deals with HCT116 WT cells. The experiment in a line: HCT116 WT cell proliferation / viability (CellTiter-Glo, 6 days). The test is classed as cell-based. The note with it: Homo sapiens, HCT-116, 144 h, HCT116 WT cells, 6 days, CellTiter-Glo; read-out: HCT-116 WT IC50. The gist of the method:
(§1)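 IC50 values derive from sigmoidal dose-response fits, some with Hill slope fixed at −1 and top constrained to 100%, others from 4-parameter logistic models. They reflect CellTiter-Glo viability after 6 days of compound exposure at up to 10 or 50 μM.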

The subject of the next test is HCT116 MTAP null cells. In words: HCT116 MTAP null cell proliferation / viability (CellTiter-Glo, 6 days). In kind it is cell-based. As to conditions: HCT116-MTAP null, 144 h, HCT116 MTAP null cells, 6 days, CellTiter-Glo; read-out: HCT-116 MTAP null IC50. Put shortly: as §1
On the technique in general: In ATP-based viability assays light output follows the ATP content of the culture.

The term IC50 denotes the concentration at which inhibition is half-maximal. Take `C[C@H](c1ccc(C(F)(F)F)nn1)N(C(=O)c1ccc2nc(N)c3c(c2c1)COC3)C1CCC1` [Example 745, 4-amino-N-cyclobutyl-N-((1R)-1-(6-(trifluoromethyl)-3-pyridazinyl)ethyl)-1,3-dihydrofuro[3,4-c]quinoline-8-carboxamide]: the IC50 with HCT116 WT cells is 14800 nM; in the test with HCT116 MTAP null cells, 246 nM.

In the case of `Cn1cc(N(Cc2ccc(C(F)(F)F)cn2)C(=O)c2ccc3nc(N)c4cnn(C)c4c3c2)cn1` [Example 757, 4-amino-1-methyl-N-(1-methyl-1H-pyrazol-4-yl)-N-((5-(trifluoromethyl)-2-pyridinyl)methyl)-1H-pyrazolo[4,3-c]quinoline-8-carboxamide], the IC50 stood at 1320 nM in the test on HCT116 WT cells and 26 nM with HCT116 MTAP null cells.

Consider `C[C@H](c1ccc(C(F)(F)F)cn1)N(C(=O)c1cc2c(cc1F)nc(N)c1c2cnn1C)C1CC1` [Example 508, 4-amino-N-cyclopropyl-7-fluoro-3-methyl-N-((1R)-1-(5-(trifluoromethyl)-2-pyridinyl)ethyl)-3H-pyrazolo[3,4-c]quinoline-8-carboxamide], for which the IC50 stood at 2840 nM in the test on HCT116 WT cells and 60 nM in the test on HCT116 MTAP null cells.

For the compound `Nc1nc2cnc(C(=O)N(Cc3ccc(C(F)(F)F)cn3)c3cnn(C(F)(F)F)c3)cc2c2c1COC2` [Example 732, 4-amino-N-(1-(trifluoromethyl)-1H-pyrazol-4-yl)-N-((5-(trifluoromethyl)-2-pyridinyl)methyl)-1,3-dihydrofuro[3,4-c][1,7]naphthyridine-8-carboxamide], the IC50 in the test with HCT116 WT cells was 2850 nM; with HCT116 MTAP null cells, 87 nM.

With `Nc1nc2cc(Cl)c(C(=O)N(Cc3ccc(C(F)(F)F)cn3)CC3CC3)cc2c2c1COC2` [Example 464, 4-amino-7-chloro-N-(cyclopropylmethyl)-N-((5-(trifluoromethyl)-2-pyridinyl)methyl)-1,3-dihydrofuro[3,4-c]quinoline-8-carboxamide], the results for the IC50 in the test on HCT116 WT cells and in the test on HCT116 MTAP null cells were 240 nM and 7 nM, respectively.

Take `CN(Cc1ccc(S(F)(F)(F)(F)F)cc1O)C(=O)c1cc2c3c(c(N)nc2cc1F)COC3` [Example 576, 4-amino-7-fluoro-N-(2-hydroxy-4-(pentafluoro-lambda~6~- sulfanyl)benzyl)-N-methyl-1,3-dihydrofuro[3,4-c]quinoline-8-carboxamide]: the IC50 in the test with HCT116 WT cells is 2080 nM; in the test with HCT116 MTAP null cells, 107 nM.

Take `CCN(Cc1ccc(C(F)(F)F)nn1)C(=O)c1ccc2nc(N)c3c(c2c1)CO[C@@H]3C` [Example 551, (3R)-4-amino-N-ethyl-3-methyl-N-((6-(trifluoromethyl)-3-pyridazinyl)methyl)-1,3-dihydrofuro[3,4-c]quinoline-8-carboxamide]: the IC50 was 5570 nM with HCT116 WT cells and 125 nM with HCT116 MTAP null cells.

As for `Nc1nc2cnc(C(=O)N(Cc3ccc(C(F)(F)F)cc3)C3CC3)cc2c2c1COC2` [Example 734, 4-amino-N-cyclopropyl-N-(4-(trifluoromethyl)benzyl)-1,3-dihydrofuro[3,4-c][1,7]naphthyridine-8-carboxamide], the values for the IC50 in the test on HCT116 WT cells and in the test on HCT116 MTAP null cells were 14400 nM and 383 nM, respectively.

`CC1(CN(Cc2ccc(C(F)(F)F)cn2)C(=O)c2cc3c4c(c(N)nc3cn2)COC4)CC1` [Example 398, 4-amino-N-((1-methylcyclopropyl)methyl)-N-((5-(trifluoromethyl)-2-pyridinyl)methyl)-1,3-dihydrofuro[3,4-c][1,7]naphthyridine-8-carboxamide]: the IC50 in the test on HCT116 WT cells was 1390 nM; in the test on HCT116 MTAP null cells it was 49 nM.

Consider `C[C@H](c1ccc(C(F)(F)F)cn1)N(C)C(=O)c1cc2c(cc1F)nc(N)c1cnn(C)c12` (single isomer, unassigned) [Example 602], for which the results for the IC50 with HCT116 WT cells and with HCT116 MTAP null cells were 209 nM and 6 nM, respectively.

For the compound `CC1OCc2c1c(N)nc1ccc(C(=O)N(C)Cc3ccc(C(F)(F)F)cn3)cc21` (centres unmarked) [Example 929, 4-amino-N,3-dimethyl-N-((5-(trifluoromethyl)pyridin-2-yl)methyl)-1,3-dihydrofuro[3,4-c]quinoline-8-carboxamide], the values for the IC50 with HCT116 WT cells and in the test on HCT116 MTAP null cells were greater than 1000 nM and 200 nM, respectively.

`Nc1nc2cnc(C(=O)N(Cc3ccc(C(F)(F)F)cn3)C3CC3)cc2c2c1COC2` [Example 365, 4-amino-N-cyclopropyl-N-((5-(trifluoromethyl)-2-pyridinyl)methyl)-1,3-dihydrofuro[3,4-c][1,7]naphthyridine-8-carboxamide]: the IC50 in the test with HCT116 WT cells was 6500 nM; with HCT116 MTAP null cells it was 76 nM.

With `CN(Cc1ccc(S(F)(F)(F)(F)F)cc1)C(=O)c1cc2c3c(c(N)nc2cc1Cl)COC3` [Example 513, 4-amino-7-chloro-N-methyl-N-(4-(pentafluoro-lambda~6~- sulfanyl)benzyl)-1,3-dihydrofuro[3,4-c]quinoline-8-carboxamide], the IC50 was 848 nM with HCT116 WT cells and 19 nM in the test on HCT116 MTAP null cells.

As to `C[C@@H]1OCc2c1c(N)nc1cnc(C(=O)N(Cc3ccc(C(F)(F)F)nn3)C3CCC3)cc21` (single isomer, unassigned) [Example 829], the values for the IC50 with HCT116 WT cells and with HCT116 MTAP null cells were greater than 50000 nM and 7790 nM, respectively.

Turning to `Nc1nc2cc(F)c(C(=O)N(Cc3ccc(C(F)(F)F)nn3)CC3CC3)cc2c2c1COC2` [Example 730, 4-amino-N-(cyclopropylmethyl)-7-fluoro-N-((6-(trifluoromethyl)-3-pyridazinyl)methyl)-1,3-dihydrofuro[3,4-c]quinoline-8-carboxamide], the IC50 in the test with HCT116 WT cells is 620 nM; in the test on HCT116 MTAP null cells, 17 nM.

For the compound `CC(C)N(Cc1cnc(C(F)(F)F)cn1)C(=O)c1cc2c3c(c(N)nc2cc1F)COC3` [Example 496, 4-amino-7-fluoro-N-(2-propanyl)-N-((5-(trifluoromethyl)-2-pyrazinyl)methyl)-1,3-dihydrofuro[3,4-c]quinoline-8-carboxamide], the values for the IC50 in the test on HCT116 WT cells and in the test on HCT116 MTAP null cells were 2240 nM and 1270 nM, respectively.

For `Nc1nc2cnc(C(=O)N(Cc3ccc(C(F)(F)F)cn3)C34CC(C3)C4)cc2c2c1COC2` [Example 689, 4-amino-N-(bicyclo[1.1.1]pentan-1-yl)-N-((5-(trifluoromethyl)-2-pyridinyl)methyl)-1,3-dihydrofuro[3,4-c][1,7]naphthyridine-8-carboxamide], the IC50 with HCT116 WT cells was found to be 2580 nM; in the test with HCT116 MTAP null cells it was 96 nM.

As to `CC1OCc2c1c(N)nc1cnc(C(=O)N(C)Cc3ccc(Br)cn3)cc21` (racemic) [Example 433, (3R)-4-amino-N-((5-bromo-2-pyridinyl)methyl)-N,3-dimethyl-1,3-dihydrofuro[3,4-c][1,7]naphthyridine-8-carboxamide and (3S)-4-amino-N-((5-bromo-2-pyridinyl)methyl)-N,3-dimethyl-1,3-dihydrofuro[3,4-c][1,7]naphthyridine-8-carboxamide], the values for the IC50 in the test with HCT116 WT cells and in the test on HCT116 MTAP null cells were 21200 nM and 344 nM, respectively.

On to `C[C@H](c1ncn(C)n1)N(Cc1ccc(C(F)F)cn1)C(=O)c1ccc2nc(N)c3c(c2c1)CO[C@@H]3C` [Example 466, (3R)-4-amino-N-((5-(difluoromethyl)-2-pyridinyl)methyl)-3-methyl-N-((1R)-1-(1-methyl-1H-1,2,4-triazol-3-yl)ethyl)-1,3-dihydrofuro[3,4-c]quinoline-8-carboxamide], for which the figures for the IC50 in the test on HCT116 WT cells and with HCT116 MTAP null cells were 217 nM and 28 nM, respectively.

For the compound `CCN(C(=O)c1cc2c3c(c(N)nc2cc1Cl)COC3)[C@H](C)c1ccc(C(F)(F)F)cn1` [Example 738, 4-amino-7-chloro-N-ethyl-N-((1R)-1-(5-(trifluoromethyl)-2-pyridinyl)ethyl)-1,3-dihydrofuro[3,4-c]quinoline-8-carboxamide], the IC50 was 430 nM with HCT116 WT cells and 13 nM in the test with HCT116 MTAP null cells.

`C[C@H](c1ncccc1F)N(Cc1ccc(Br)nn1)C(=O)c1ccc2nc(N)c3c(c2c1)CCC3` [Example 624, 4-amino-N-((6-bromo-3-pyridazinyl)methyl)-N-((1R)-1-(3-fluoro-2-pyridinyl)ethyl)-2,3-dihydro-1H-cyclopenta[c]quinoline-8-carboxamide]: the IC50 in the test with HCT116 WT cells came to 189 nM; in the test on HCT116 MTAP null cells, 21 nM.

As for `CCN(C(=O)c1cnc2nc(N)c3c(c2c1)COC3)C(C)c1ccc(C(F)(F)F)cn1` (racemic) [Example 705, 4-amino-N-ethyl-N-((1R)-1-(5-(trifluoromethyl)-2-pyridinyl)ethyl)-1,3-dihydrofuro[3,4-c][1,8]naphthyridine-8-carboxamide and 4-amino-N-ethyl-N-((1S)-1-(5-(trifluoromethyl)-2-pyridinyl)ethyl)-1,3-dihydrofuro[3,4-c][1,8]naphthyridine-8-carboxamide], the IC50 in the test on HCT116 WT cells was determined as 28500 nM; in the test with HCT116 MTAP null cells, 637 nM.

For the compound `CCN(C(=O)c1cc2c3c(c(N)nc2cc1F)COC3)C(C)c1ccc(C(F)(F)F)cn1` (racemic) [Example 719, 4-amino-N-ethyl-7-fluoro-N-((1R)-1-(5-(trifluoromethyl)-2-pyridinyl)ethyl)-1,3-dihydrofuro[3,4-c]quinoline-8-carboxamide and 4-amino-N-ethyl-7-fluoro-N-((1S)-1-(5-(trifluoromethyl)-2-pyridinyl)ethyl)-1,3-dihydrofuro[3,4-c]quinoline-8-carboxamide], the IC50 in the test with HCT116 WT cells turned out to be 21800 nM; in the test on HCT116 MTAP null cells it was 1030 nM.

For the compound `CC[C@H](c1ccc(C(F)(F)F)cn1)N(C)C(=O)c1cc2c3c(c(N)nc2cn1)COC3` (single isomer, unassigned) [Example 849], the values for the IC50 with HCT116 WT cells and with HCT116 MTAP null cells were 24400 nM and 879 nM, respectively.

As for `Cn1ncc2c(N)nc3ccc(C(=O)N(Cc4ccc(C(F)(F)F)nn4)C4CC4)cc3c21` [Example 790, 4-amino-N-cyclopropyl-1-methyl-N-((6-(trifluoromethyl)-3-pyridazinyl)methyl)-1H-pyrazolo[4,3-c]quinoline-8-carboxamide], the IC50 was 47100 nM in the test with HCT116 WT cells and 776 nM in the test with HCT116 MTAP null cells.
